# Assay results as given in patent US10344026B2, “Compositions and methods of targeting mutant K-ras” (NANTBIO, INC., priority 2017, dated 2019).
# Key:
# Type in all cases: cell-based
# [1] = test system: phospho-ERK in Panc10.05 (G12D); experiment: In-Cell Western phospho-ERK, Panc10.05; conditions: Homo sapiens, Panc1005, 1 h; Panc10.05, one hour treatment; read-out: In-Cell Western Panc10.05 (G12D) Erk (P)
# Method in brief: (§1)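 One-hour compound treatment of cells plated a day earlier, 0.5% DMSO. Phospho-signal detected by in-cell immunofluorescence imaging; EC50 calculated.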
# [2] = test system: HCC827 (K-Ras wild type cell line); experiment: Viability assay (CellTiterBlue, 72 hr) HCC827; conditions: Homo sapiens, GI50, CellTiterBlue, HCC827 K-Ras wild-type
# Method in brief: (§2)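 Fluorescence at Ex550/Em590, read 3 hr after CellTiterBlue addition, served as the viability signal following 72 hr compound treatment. Wells held 1000 cells, pre-incubated 18 hr at 37 °C, with 0.5% DMSO final. GI50 derived with DMSO as 100% and 100 uM tamoxifen as 0% viability.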
# K-Ras G12V = target: T1, K-Ras G12V (Homo sapiens, UniProt P01116, G12V); experiment: G-LISA Ras activation, 293H cells transfected with G12V mutant; conditions: compound 1 hour
# T1 construct: expressed in transfected cells; host or cells: 293H cells
# Method: 293H cells were seeded in 6-wells at 0.6×10^6 cells per well and transfected next day with 5 μg of Ras wild-type, or G12C, G12D or G12V mutant DNA plasmid vector using transfection reagent Lipofectamine 3000. Next day cells were treated with 3.125-25 μM of Ras compounds for 1 hour. Wild-type transfected cells were subsequently treated with 100 ng/ml EGF for 2 minutes. Cells were washed once in ice-cold PBS, lysed in complete lysis buffer on ice, and processed by G-LISA according to Cytoskeleton protocol.
# [3] = test system: phospho-Akt in Panc1 (G12D); experiment: In-Cell Western phospho-Akt, Panc1; conditions: Homo sapiens, PANC-1, 1 h; Panc1, one hour treatment; read-out: In-Cell Western Panc1 (G12D) Akt (P)
# Method in brief: as §1
# [4] = test system: phospho-ERK in Panc1 (G12D); experiment: In-Cell Western phospho-ERK, Panc1; conditions: Homo sapiens, PANC-1, 1 h; Panc1, one hour treatment; read-out: In-Cell Western Panc1 (G12D) Erk (P)
# Method in brief: as §1
# HCT116-G31D = experiment: Viability assay (CellTiterBlue, 72 hr) HCT116; conditions: Homo sapiens, HCT-116, GI50, CellTiterBlue, HCT116 K-Ras G13D, read-out: 72 hr Cell Viability HCT116 (G13D)
# Method in brief: as §2
# [5] = test system: phospho-Akt in Panc10.05 (G12D); experiment: In-Cell Western phospho-Akt, Panc10.05; conditions: Homo sapiens, Panc1005, 1 h; Panc10.05, one hour treatment; read-out: In-Cell Western Panc10.05 (G12D) Akt (P)
# Method in brief: as §1
# [6] = test system: phospho-ERK in A375 (Wild-type); experiment: In-Cell Western phospho-ERK, A375; conditions: Homo sapiens, A-375, 1 h; A375, one hour treatment; read-out: In-Cell Western A375 (Wild-type) Erk (P)
# Method in brief: as §1
# [7] = test system: Ishikawa (K-Ras wild type cell line); experiment: Viability assay (CellTiterBlue, 72 hr) Ishikawa; conditions: Homo sapiens, GI50, CellTiterBlue, Ishikawa K-Ras wild-type
# Method in brief: as §2
# [8] = test system: phospho-Akt in A375 (Wild-type); experiment: In-Cell Western phospho-Akt, A375; conditions: Homo sapiens, A-375, 1 h; A375, one hour treatment; read-out: In-Cell Western A375 (Wild-type) Akt (P)
# Method in brief: as §1
# wild type K-Ras = target: T2, wild type K-Ras (Homo sapiens, UniProt P01116); experiment: G-LISA Ras activation, 293H cells transfected with Ras wild-type, EGF stimulated; conditions: compound 1 hour, then 100 ng/ml EGF 2 minutes
# T2 construct: expressed in transfected cells; host or cells: 293H cells
# Method in brief: (§3)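 293H cells transfected with 5 μg Ras wild-type or mutant plasmid (Lipofectamine 3000); next day treated with 3.125-25 μM compound for 1 h. Wild-type-transfected cells then stimulated with 100 ng/ml EGF for 2 min. Active Ras measured by G-LISA in ice-cold lysates.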
# Panc1-G12D = experiment: Viability assay (CellTiterBlue, 72 hr) Panc1; conditions: Homo sapiens, PANC-1, GI50, CellTiterBlue, Panc1 K-Ras G12D, read-out: 72 hr Cell Viability Panc1 (G12D)
# Method in brief: as §2
# Panc10.05-G12D = experiment: Viability assay (CellTiterBlue, 72 hr) Panc10.05; conditions: Homo sapiens, Panc1005, GI50, CellTiterBlue, Panc10.05 K-Ras G12D, read-out: 72 hr Cell Viability Panc10.05 (G12D)
# Method in brief: as §2
# K-Ras G12D = target: T3, K-Ras G12D (Homo sapiens, UniProt P01116, G12D); experiment: G-LISA Ras activation, 293H cells transfected with G12D mutant; conditions: compound 1 hour
# T3 construct: expressed in transfected cells; host or cells: 293H cells
# Method in brief: as §3
# [9] = test system: U87-MG (K-Ras wild type cell line); experiment: Viability assay (CellTiterBlue, 72 hr) U87-MG; conditions: Homo sapiens, U-87 MG, GI50, CellTiterBlue, U87-MG K-Ras wild-type
# Method in brief: as §2
# [10] = test system: phospho-ERK in HCC827 (Wild-type); experiment: In-Cell Western phospho-ERK, HCC827; conditions: Homo sapiens, 1 h; HCC827, one hour treatment; read-out: In-Cell Western HCC827 (Wild-type) Erk (P)
# Method in brief: as §1
# [11] = test system: A375 (K-Ras wild type cell line); experiment: Viability assay (CellTiterBlue, 72 hr) A375; conditions: Homo sapiens, A-375, GI50, CellTiterBlue
# Method in brief: as §2
# [12] = test system: phospho-Akt in HCC827 (Wild-type); experiment: In-Cell Western phospho-Akt, HCC827; conditions: Homo sapiens, 1 h; HCC827, one hour treatment; read-out: In-Cell Western HCC827 (Wild-type) Akt (P)
# Method in brief: as §1
# T3 sequence (P01116 whole entry G12D): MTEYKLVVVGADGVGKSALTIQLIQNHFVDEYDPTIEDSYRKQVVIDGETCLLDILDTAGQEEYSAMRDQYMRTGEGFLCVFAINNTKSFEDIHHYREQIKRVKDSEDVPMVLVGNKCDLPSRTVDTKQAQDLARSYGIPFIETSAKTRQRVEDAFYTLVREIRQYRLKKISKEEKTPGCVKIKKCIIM
# T2 sequence (P01116 whole entry): as the sequence (P01116 whole entry G12D) above, with D12G counted along it
# T1 sequence (P01116 whole entry G12V): as the sequence (P01116 whole entry G12D) above, with D12V counted along it
Compound,EC50 [1],IC50 [2],IC50 (K-Ras G12V),EC50 [3],EC50 [4],IC50 (HCT116-G31D),EC50 [5],EC50 [6],IC50 [7],EC50 [8],IC50 (wild type K-Ras),IC50 (Panc1-G12D),IC50 (Panc10.05-G12D),IC50 (K-Ras G12D),IC50 [9],EC50 [10],IC50 [11],EC50 [12]
"Cc1nc(C(C)C)oc1C(=O)Nc1nc(-c2ccc3c(c2)CCC(=O)N3)cs1 [Compound 7, 2-isopropyl-4-methyl-N-(4-(2-oxo-1,2,3,4-tetrahydroquinolin-6-yl)thiazol-2-yl)oxazole-5-carboxamide]",4 µM,> 25 µM,> 25 µM,> 25 µM,> 25 µM,> 25 µM,8 µM,> 25 µM,> 25 µM,> 25 µM,11.7 µM,8 µM,2 µM,4.8 µM,> 25 µM,> 25 µM,> 25 µM,
"Cc1nc(C)c(C(=O)Nc2nc(-c3ccc4c(c3)CCC(=O)N4CC3CCCOC3)cs2)o1 (stereo not shown) [Compound 66, 2,4-dimethyl-N-(4-(2-oxo-1-((tetrahydro-2H-pyran-3-yl)methyl)-1,2,3,4-tetrahydroquinolin-6-yl)thiazol-2-yl)oxazole-5-carboxamide]",3 µM,4 µM,6.5 µM,2 µM,3 µM,3 µM,18 µM,,2 µM,,11.1 µM,6 µM,2 µM,4.5 µM,,4 µM,,15 µM
"CCc1nc(C)c(C(=O)Nc2nc(-c3ccc4c(c3)CCC(=O)N4Cc3ccccn3)cs2)o1 [Compound 63, 2-ethyl-4-methyl-N-(4-(2-oxo-1-(pyridin-2-ylmethyl)-1,2,3,4-tetrahydroquinolin-6-yl)thiazol-2-yl)oxazole-5-carboxamide]",7 µM,5 µM,9.8 µM,4 µM,3 µM,4 µM,> 25 µM,,4 µM,,> 25 µM,5 µM,2 µM,5.6 µM,1.5 µM,6 µM,,10 µM
"CCc1nc(C)c(C(=O)Nc2nc(-c3ccc4c(c3)CCC(=O)N4Cc3cccnc3)cs2)o1 [Compound 64, 2-ethyl-4-methyl-N-(4-(2-oxo-1-(pyridin-3-ylmethyl)-1,2,3,4-tetrahydroquinolin-6-yl)thiazol-2-yl)oxazole-5-carboxamide]",9 µM,10 µM,9.6 µM,6 µM,5 µM,5 µM,> 25 µM,,3.5 µM,,> 25 µM,5 µM,2 µM,3 µM,2 µM,7 µM,,15 µM
"Cc1nc(C2CCC2)oc1C(=O)Nc1nc(-c2ccc3c(c2)CCC(=O)N3)cs1 [Compound 8, 2-cyclobutyl-4-methyl-N-(4-(2-oxo-1,2,3,4-tetrahydroquinolin-6-yl)thiazol-2-yl)oxazole-5-carboxamide]",2 µM,> 25 µM,> 25 µM,> 25 µM,> 25 µM,> 25 µM,6 µM,> 25 µM,> 25 µM,> 25 µM,15.5 µM,17 µM,1.3 µM,5.9 µM,,> 25 µM,,
"Cc1nc(C2CC2)oc1C(=O)Nc1nc(-c2ccc3c(c2)CCC(=O)N3)cs1 [Compound 6, 2-cyclopropyl-4-methyl-N-(4-(2-oxo-1,2,3,4-tetrahydroquinolin-6-yl)thiazol-2-yl)oxazole-5-carboxamide]",2 µM,,19.4 µM,,4 µM,> 25 µM,3 µM,,10 µM,,10.6 µM,2.4 µM,3.6 µM,7.3 µM,5 µM,,,
"Cc1nc(C2CC2)oc1C(=O)Nc1nc(-c2ccc3c(c2)CCC(=O)N3Cc2ccccc2)cs1 [Compound 58, N-(4-(1-benzyl-2-oxo-1,2,3,4-tetrahydroquinolin-6-yl)thiazol-2-yl)-2-cyclopropyl-4-methyloxazole-5-carboxamide]",,,21.6 µM,6 µM,,4 µM,3 µM,,2.3 µM,,20.4 µM,1.7 µM,3.4 µM,5.2 µM,4 µM,,,
